# Results reported in patent US11672786B2, “Methods of treating diseases associated with repeat instability” (The Hospital for Sick Children, priority 2016, dated 2023).
# Several values for one entry are separate records, joined by “and”; a condition that tells them apart may be missing. Equal entries are not always repeated.
# Test system: HT1080-(CAG)850 cells
# Test: small-pool PCR repeat instability, proliferating HT1080-(CAG)850 cells producing rCAG transcript
# Assay type: cell-based, human
# Settings: 30 days; for % Contraction / % Expansion: cut-off ±25 repeats
# Protocol: The construction of the HT1080-(CAG)850 cell model was described previously (Sathasivam et al., 1997, Hum. Genet., 99:692-5). Briefly, HT1080 (ATCC) human fibrosarcoma cells were co-transfected with a plasmid (LC15-R) containing 800-850 (CTG)●(CAG) repeats (Nakatani et al., 2005, Nat. Chem. Biol., 1:39-43) and a plasmid encoding PhiC31 integrase. Transfection was performed with a Nucleofector (Lonza, Basel, Switzerland), and stably transfected clones were selected with puromycin. […] The HT1080-non-transcribing (CAG)850 cell model was established by transfecting a plasmid modified from pLC16 by inserting an additional SV40 polyadenylation signal downstream of the repeats (in addition to the original polyadenylation signals located upstream of the repeats), so that CAG/CTG repeats are floxed by transcription-terminator elements. The AttB-PhiC31 system has been widely used for single copy integration. […] The HT1080 model cells and an HD primary fibroblast cell line, GM09197 (Coriell Biorepository) with a large expanded allele of 180 CAG repeats and a non-expanded allele of 23 repeats (Sathasivam et al., 1997, Hum. Genet., 99:[…]), the HD primary fibroblast cell line, GM02191 (Coreill Biorepository) with an expanded allele of 43 CAG repeats and a non-expanded allele of 19 repeats, were cultured at 37° C. with 5% CO2 in Dulbecco's modified Eagle's medium supplemented with 10% fetal bovine serum and 1% penicillin/streptomycin. Cells were treated with or without continuous exposure to 50-μM NA for 30 days (HT1080 cells) or for 40 days (fibroblast cells). For experiments on non-proliferating cells, HT1080 cells were grown to confluence and then treated for the same period. WST-1 assay was performed according to the manufacturer's instructions (Roche, Basel, Switzerland). All cell lines were tested to be free of Mycoplasma. Three biological replicates were performed for each experiment.
# Genomic DNA was extracted from HT1080-(CAG)850 clones and HD primary fibroblasts using the Gentra Puregene Cell Kit (Qiagen, Valencia, Calif.). The expanded (CTG)●(CAG) repeats were sized by small-pool PCR (sp-PCR) followed by Southern blot as described previously (Sathasivam et al., 1997, Hum. Genet., 99:692-5). For HT1080 models, small-pool PCR (spPCR) was performed with the input of 1.4-1.7 genome equivalents. The repeat size difference in the models is, at most, 3000 base-pairs, therefore, being strictly conservative, a bias toward amplifying the shorter allele can be possible, even under optimized PCR conditions described herein. For HD primary fibroblasts, sp-PCR & Southern blots were performed as described previously with slight modifications (Tome et al., 2013, PLoS Genet., 9:e1003280). Briefly, the PCR primers listed in Table 1 were used, and blots were hybridized with a DIG-labeled (CAG)7 locked nucleic acid probe (Nakamori et al. 2009, Neuromuscul. Disord., 19:759-62). At least 50 alleles were analyzed for each of the three experiments (more than 150 alleles for a total study). Repeat analyses are summarized in Table 2, compiled from complete small-pool-PCR datasets for each repetition of each experiment. For the histograms in FIGS. 4D, 4E, 10, 11, 5B, 5D, 5E, 14 and 15B, the Y-axis, “% of repeat population” was calculated by determining the proportion of >50 individual small-pool PCR reactions across the CAG repeat tract, that harbored a certain size of repeat product with a certain length. Cell clones were grown 30 or 40 days with or without NA (see, for example, Sathasivam et al., 1997, Hum. Genet., 99:692-5). Specifically, the histograms of repeat length distributions were from at least two different cell clones. Length distributions were determined as follows: Small-pool PCR followed by Southern blot for analysis of CAG/CTG repeat length.
# [1] = 50 uM NA, Total of 3 experiments
# [2] = 50 uM NA, single experiments Ex 1-3
substance,measurement,setting,value
naphthyridine-azaquinolone,magnitude of repeat units lost (greatest),50 μM NA,≤ 790 repeats
same,% Unchanged,[1],26.7%
same,Average Change of Repeat Size,"50 uM NA, Total of 3 experiments, all alleles",−125.7 number of repeats
same,% Contraction,[1],59.4%
same,% Expansion,[1],13.9%
same,% Unchanged,[2],28.4% and 27.4% and 23.7%
same,% Contraction,[2],56.8% and 60.0% and 61.0%
same,% Expansion,[2],14.8% and 11.3% and 15.2%
